In patent publication US20230190760A1, “ADVANTAGEOUS THERAPIES FOR DISORDERS MEDIATED BY IKAROS OR AIOLOS” (C4 Therapeutics, Inc., priority 2020, published 2023):
“Also recorded” adds a separate entry of the source.

Key:
RPMI-8226 tumors = experiment: RPMI-8226 xenograft, crossover from pomalidomide to Compound 1; assay type: in vivo, mice; details: 100 μg/kg/day
Method: Vehicle treated animals were treated for 28 days until tumors reached a MTV of 2211 mm^3. […] Data are expressed as MTV±SEM.
Tumor growth was monitored throughout the study. […] Measurements were twice weekly. The health of the mice was monitored, and noteworthy clinical observations were recorded. Acceptable toxicity was defined as a group's mean BW loss of less than 20% during the study and not more than one treatment related death among ten treated animals, or 10%.
Animals were weighed on a twice weekly schedule.

[1] = test system: NCI-H929 multiple myeloma tumors; experiment: NCI-H929 multiple myeloma xenograft, NOD SCID mice (Example 31); assay type: in vivo
Method: Compound 1 was administered QD (every day) orally (PO). […]
For the NCI-H929 cells, the xenograft study was conducted in female NOD SCID mice bearing NCI-H929 multiple myeloma tumors.
After the dosing period, tumor growth was monitored for 45 days. […] After the initial 21 days of dosing, all Compound 1 groups were monitored for tumor growth. The 10 μg/kg group was removed from study on 39. The 30 μg/kg group tumors began to regrow, and PO daily dosing resumed starting on day 40 for an additional 23 days. Statistical analysis was performed using two-way analysis of variance (ANOVA). Data are expressed as MTV±SEM.

SR = experiment: Anti-proliferative activity, 96 hours; details: Homo sapiens
[2] = test system: proteins in DL40 tumor lysates; experiment: Global proteomics of ALCL ALK+ DL40 xenograft tumors, mice treated orally with 100 μg/kg; assay type: in vivo, mouse
Method: NOD SCI mouse bearing ALCL ALK+DL40 xenografts were treated orally with 100 μg/kg of Compound 1. After 1, 4, 24 and 48 hour treatment, biological duplicates of tumoral cells were harvested, washed twice with PBS, and snap frozen in liquid nitrogen. Samples were resuspended in lysis buffer [8 M urea, 50 mM EPPS (pH 8.5), 50 mM NaCl, lx protease inhibitor cocktail] and lysed by sonication. Lysates were centrifuged at maximum speed, reduced for 1 hour at room temperature with 5 mM TCEP, and the cysteine residues were then alkylated with 15 mM iodoacetamide (room temperature, in dark, 30 minutes). Protein content was extracted twice by methanol-chloroform precipitation and subsequent ice-cold acetone washes. Protein pellets were resuspended in 8 M urea, 50 mM EPPS (pH 8.5) buffer and protein concentrations were measured by BCA assay. Samples were then diluted to 4 M urea with 50 mM EPPS (pH 8.5) and digested at 37° C. for 1 hour with endoproteinase Lys-C, at a 1/100 enzyme/protein ratio. The mixtures were then diluted to 1 M urea with 50 mM EPPS (pH 8.5) and trypsin was added at a 1/50 enzyme/protein ratio. The reaction was incubated overnight at 37° C. and stopped by acidification with formic acid 0.5% (v/v). Peptides were loaded on tC18 SepPak solid-phase extraction cartridges and lyophilized.
For peptide labeling, 100 μg of peptides per sample was prepared at […] concentration in 200 mM EPPS (pH 8.5), ACN was added to a final concentration of 30% and then 50 μg of each TMT 10 reagent. After 1 hour incubation at room temperature, reactions were quenched with 0.3% hydroxylamine for 15 minutes and mixed equally. The mixed sample was desalted using the tC18 SepPak solid-phase extraction cartridges, and lyophilized. Dried peptides were resuspended in 5% ACN, 10 mM NH4HCO3 pH 8 and fractionated in a basic pH reversed phase chromatography using a HPLC equipped with a 3.5 μm XBridge Peptide BEH C18 column. 96 fractions were collected, which were consolidated into 24, of which only 12 nonadjacent samples were analyzed. Samples were desalted, dried via vacuum centrifugation and reconstituted in 12 μL of 5% formic for LC-MS/MS analysis.
A third of each sample (4 μL) was separated by reversed phase chromatography using an EASY-Spray C18 column (2 μm particle size, 250 mm length×75 μm ID) mounted in an EASY-nLC 1200 LC pump coupled to an Orbitrap Fusion Lumos Tribid mass spectrometer. Peptides were separated using a 420 min gradient of 2 to 30% acetonitrile at a flow rate of ˜300 nL/min. Each analysis was performed using the multi-notch MS3 (SPS-MS3) scan. For the identification and relative quantification, all RAW files obtained from the mass spectrometer were transformed using SEQUEST-based software. Briefly, mass spectra were searched against the human Uniprot database (February 2016) concatenated with a database composed of all protein sequences in the reversed order as well as known contaminants. In all SEQUEST searches, precursor ion tolerance was set at 25 ppm and product ion tolerance at 0.9 Da, including methionine oxidation (+15.9949 Da) and cysteine carbamidomethylation (+57.0215 Da) as variable modifications. TMT tag (+229.1629 Da) on lysine residues and peptide N-termini were set as static modifications. Peptide-spectrum matches (PSMs) were performed using a linear discriminant analysis and adjusted to a […]. Peptide intensities were quantified by extracting the signal-to-noise ratio and proteins were further collapsed to a final protein-level FDR of 2%. Protein quantification values were exported to Excel, GraphPad Prism 7 or Perseus14 for further analysis.

SU-DHL-2 = experiment: Anti-proliferative activity, 96 hours; details: Homo sapiens, SU-DHL-2, 96 h
DOHH-2 = experiment: Anti-proliferative activity, 96 hours; details: Homo sapiens, DOHH-2, 96 h

O=C1CC[C@H](N2C(=O)c3cccc4c(Cc5ccc(CN6CCOCC6)cc5)ccc2c34)C(=O)N1 (single isomer, unassigned) [Compound 1] was tested, and the “tumor volume after crossover from pomalidomide” value (RPMI-8226 tumors) was “rapid tumor regression; also recorded: began to decrease”, the “tumor volume versus pomalidomide 3000 μg/kg” value ([1]; 10, 30 and 100 μg/kg) was “reduced tumor volume more than pomalidomide” and the “Statistical Significance Compared to Vehicle” value ([1]; Dose Level (mg/kg) 10, PO QD) was less than 0.0001. The “Statistical Significance Compared to Vehicle” value ([1]; Dose Level (mg/kg) 30, PO QD) was less than 0.0001, the “Statistical Significance Compared to Vehicle” value ([1]; Dose Level (mg/kg) 100, PO QD) was less than 0.0001 and the IC50 (SR) was 16.2 nM. The “Log2 FC vs Vehicle, IKZF1” value ([2]; 4 Hour) was −2.466, the “Log2 FC vs Vehicle, IKZF3” value ([2]; 4 Hour) was −2.006 and the “Log2 FC vs Vehicle, ACTA1” value ([2]; 24 Hour) was −1.089. The “Log2 FC vs Vehicle, ACTN2” value ([2]; 24 Hour) was −1.304, the “Log2 FC vs Vehicle, AK1” value ([2]; 24 Hour) was −1.041 and the “Log2 FC vs Vehicle, APOBEC2” value ([2]; 24 Hour) was −1.355. The “Log2 FC vs Vehicle, ATP2A1” value ([2]; 24 Hour) was −1.427, the “Log2 FC vs Vehicle, CASQ1” value ([2]; 24 Hour) was −1.333 and the “Log2 FC vs Vehicle, CKM” value ([2]; 24 Hour) was −1.248. The “Log2 FC vs Vehicle, CKMT2” value ([2]; 24 Hour) was −1.544, the “Log2 FC vs Vehicle, FHL1” value ([2]; 24 Hour) was −1.311 and the “Log2 FC vs Vehicle, IKZF1” value ([2]; 24 Hour) was −2.515. For the same molecule, the “Log2 FC vs Vehicle, IKZF3” value ([2]; 24 Hour) was −1.761, the “Log2 FC vs Vehicle, JPH2” value ([2]; 24 Hour) was −1.117 and the “Log2 FC vs Vehicle, KLHL41” value ([2]; 24 Hour) was −1.142. The “Log2 FC vs Vehicle, LDB3” value ([2]; 24 Hour) was −1.136, the “Log2 FC vs Vehicle, MYBPC1” value ([2]; 24 Hour) was −1.366 and the “Log2 FC vs Vehicle, MYBPC2” value ([2]; 24 Hour) was −1.146. The “Log2 FC vs Vehicle, MYH1” value ([2]; 24 Hour) was −1.258, the “Log2 FC vs Vehicle, MYH2” value ([2]; 24 Hour) was −1.188 and the “Log2 FC vs Vehicle, MYH3” value ([2]; 24 Hour) was −1.165. For the same molecule, the “Log2 FC vs Vehicle, MYH4” value ([2]; 24 Hour) was −1.05, the “Log2 FC vs Vehicle, MYH7” value ([2]; 24 Hour) was −2.977 and the “Log2 FC vs Vehicle, MYH7B” value ([2]; 24 Hour) was −1.231. The “Log2 FC vs Vehicle, MYH13” value ([2]; 24 Hour) was −1.102, the “Log2 FC vs Vehicle, MYL1” value ([2]; 24 Hour) was −1.3 and the “Log2 FC vs Vehicle, MYL4” value ([2]; 24 Hour) was −1.344. The “Log2 FC vs Vehicle, MYLPF” value ([2]; 24 Hour) was −1.434, the “Log2 FC vs Vehicle, MYOM1” value ([2]; 24 Hour) was −1.201 and the “Log2 FC vs Vehicle, NEB” value ([2]; 24 Hour) was −1.184. The “Log2 FC vs Vehicle, OAS1” value ([2]; 24 Hour) was 1.172, the “Log2 FC vs Vehicle, PVALB” value ([2]; 24 Hour) was −1.105 and the “Log2 FC vs Vehicle, PYGM” value ([2]; 24 Hour) was −1.139. The “Log2 FC vs Vehicle, SPR” value ([2]; 24 Hour) was 1.088, the “Log2 FC vs Vehicle, SRL” value ([2]; 24 Hour) was −1.252 and the “Log2 FC vs Vehicle, TNNC2” value ([2]; 24 Hour) was −1.035. For the same molecule, the “Log2 FC vs Vehicle, TNNI2” value ([2]; 24 Hour) was −1.377, the “Log2 FC vs Vehicle, TPM1” value ([2]; 24 Hour) was −1.146 and the “Log2 FC vs Vehicle, TRIM72” value ([2]; 24 Hour) was −1.083. The “Log2 FC vs Vehicle, TTN” value ([2]; 24 Hour) was −1.117, the “Log2 FC vs Vehicle, ZFP91” value ([2]; 24 Hour) was −1.279 and the “fold change, IKZF1 downregulated” value ([2]; 4 hours) was 5.5. For the same molecule, the “fold change, IKZF3 downregulated” value ([2]; 4 hours) was 4.1, the “selectivity, proteins degraded” value ([2]; 4 hours post a single dose of 100 μg/kg, >7900 proteins detected) was “degrading only IKZF1/3” and the IC50 (SU-DHL-2) was 4.55 nM. For the same molecule, the IC50 (DOHH-2) was 2.73 nM.
